Data: ChEMBL document CHEMBL3507680, “University of Dundee, Gates Library screen for HepG2 cell viability”

Test: Human HepG2 cell viability assay in 384 well format
Type: toxicity, cell-based
Parameters: dose 125 nL, time 70.5 hour; concentration not given beside the values
Details: HepG2 cells, read-out: Inhibition
CCOCC(=O)N1Cc2cnc(-c3ccccc3)nc2C1 gave a cytotoxicity at 70.5 h of -13%.
With CCOCC(=O)Nc1cccnc1-n1ccnc1C the cytotoxicity at 70.5 h was -6.13%.
In the case of Cc1ccc(CCNC(=O)c2cccnc2)o1, the cytotoxicity at 70.5 h is reported as 30.2%.
Cc1ccccc1C(NC(=O)NCC1(O)CCC1)C1CC1 (configuration not stated) showed a cytotoxicity at 70.5 h of 5.34%.
Compound O=C(O)COc1ccc(CN2CCCC(Cc3cccnc3)C2)cc1 (configuration not stated) has a cytotoxicity at 70.5 h of -9.55%.
CS(=O)(=O)N1CCCC1c1ccnc2nccn12 (configuration not stated) showed a cytotoxicity at 70.5 h of -12.2%.
Compound c1cnn(CC2CN(Cc3ccc(-n4ccnc4)cc3)CCO2)c1 (configuration not stated) has a cytotoxicity at 70.5 h of 12.9%.
For Cc1cnc(N2CCC3(CCN(CC4CCCC4)C3=O)CC2)nc1, the cytotoxicity at 70.5 h was -11%.
In the case of O=c1c(S(=O)(=O)N2CCCC2)cccn1Cc1c(F)cccc1Cl, the cytotoxicity at 70.5 h is reported as -6.76%.
In the case of CNC(=O)CN(C)C1CCN(c2ccc(Cl)cc2)CC1, the cytotoxicity at 70.5 h is reported as 2.05%.
For CSc1nc(N)cc(N2C[C@@H]3CC[C@H](C2)N(CC2CC2)C3=O)n1, the cytotoxicity at 70.5 h was 3.27%.
In the case of Cn1c(C2CC2)nc2c1CCN(CCOc1ccccc1C#N)C2, the cytotoxicity at 70.5 h is reported as 23.9%.
With O=c1[nH]c(-c2ccccc2)nc2c1CCN(S(=O)(=O)N1CCCC1)C2 the cytotoxicity at 70.5 h was -7.26%.
Work on CCc1nc(C2CCCN2C(=O)c2ccc3c(c2)[nH]c(=O)n3C)no1 (configuration not stated) yielded a cytotoxicity at 70.5 h of 2.37%.
CO[C@@H]1CCN(S(=O)(=O)c2cn(C)cn2)[C@H]1Cc1ccccc1 showed a cytotoxicity at 70.5 h of -1.49%.
Cc1nc2c(s1)C(N(C)C(=O)NCCCC(C)(C)CO)CCC2 (configuration not stated) showed a cytotoxicity at 70.5 h of -6.11%.
COc1ccc(C(NCc2ccc(C#N)cc2)C2CC2)cc1 (configuration not stated) gave a cytotoxicity at 70.5 h of -7.6%.
CCNc1cc2c(nn1)CCN(C(=O)c1cc3cc(C)ccc3o1)C2 showed a cytotoxicity at 70.5 h of 5.36%.
CC(C)c1nc(O)c2nnn(C[C@H]3CCCN(Cc4cccs4)C3)c2n1 showed a cytotoxicity at 70.5 h of 32.6%.
With CCOc1ncc(NC(=O)c2ccco2)c(OCC)n1 the cytotoxicity at 70.5 h was -0.599%.
In the case of Cn1cnnc1C1CCCN(C(=O)c2cnc3ccccc3n2)C1 (configuration not stated), the cytotoxicity at 70.5 h is reported as -1.48%.
Work on CN(C)S(=O)(=O)N1CC[C@]2(C[C@H](Oc3cccnc3)CO2)C1 yielded a cytotoxicity at 70.5 h of -5.74%.
For Cc1cccc(NS(=O)(=O)c2cc(C(=O)O)oc2C)c1, the cytotoxicity at 70.5 h was -0.669%.
CN(C)c1nccc(CNC(=O)NC(C)(C)C)n1 showed a cytotoxicity at 70.5 h of -0.141%.
In the case of C=C(C)CN1CCOC(Cn2cncn2)C1 (configuration not stated), the cytotoxicity at 70.5 h is reported as 32%.
CNC(=O)[C@H]1C[C@@H]2CN(S(=O)(=O)c3cccc(C)c3)C[C@@H]2N1C gave a cytotoxicity at 70.5 h of 2.15%.
Work on CC1CN(c2ncnc3ccccc23)CCO1 (configuration not stated) yielded a cytotoxicity at 70.5 h of 10%.
In the case of Cc1ccccc1C(=O)N1C[C@@H]2OCCN(c3ncccn3)[C@@H]2C1, the cytotoxicity at 70.5 h is reported as 17.4%.
For CC(C)(C)c1nc(CN(CCO)Cc2cc(Br)ccc2F)no1, the cytotoxicity at 70.5 h was -3.27%.
Work on CN(C)C1CCN(C(=O)c2cc(-c3ccn(C)n3)n3ccccc23)CC1 yielded a cytotoxicity at 70.5 h of -6.13%.
Work on CN(C)C(=O)CN1CCC2(CC1)CC(=O)c1ccc3ccccc3c1O2 yielded a cytotoxicity at 70.5 h of -6.26%.
CCOc1ccccc1C(=O)N(C)C(C)c1ccc(S(C)(=O)=O)cc1 (configuration not stated) gave a cytotoxicity at 70.5 h of -6.38%.
In the case of CCOc1nnc(CN(Cc2ccccc2)CC(O)c2ccco2)s1 (configuration not stated), the cytotoxicity at 70.5 h is reported as -10.6%.
Compound CC(C)(C)C(=O)N1CCC(COCc2ccccc2)C1 (configuration not stated) has a cytotoxicity at 70.5 h of -3.49%.
With CC1(C(N)=O)CN(CC2CCC2)CCO1 (configuration not stated) the cytotoxicity at 70.5 h was -2.2%.
With CC(=O)NCCN1CCC(c2cccs2)CC1 the cytotoxicity at 70.5 h was 0.738%.
In the case of O=C(NC1CC1)N1CC[C@@H](O)[C@@H]1Cc1ccccc1, the cytotoxicity at 70.5 h is reported as 0.741%.
O=C(NCC1(O)CCC1)NC(c1cc(F)ccc1F)C1CC1 (configuration not stated) gave a cytotoxicity at 70.5 h of -6.17%.
Compound CCN1CCCCC1C(=O)N1CCC(OCCOC)CC1 (configuration not stated) has a cytotoxicity at 70.5 h of 1.39%.
COCCN1CC(=O)N(C(C)C)C(C)(C)C1 gave a cytotoxicity at 70.5 h of 0.521%.
Work on O=C(CN1CCC(c2nnc(C(F)(F)F)o2)CC1)Nc1cccc(Cl)c1 yielded a cytotoxicity at 70.5 h of 19.3%.
For Cc1cnn(CC2CCCN2C(=O)Cc2c(C)noc2Cl)c1 (configuration not stated), the cytotoxicity at 70.5 h was -4.41%.
CC(=O)Nc1nc(C(=O)N2CCCC(n3ccnc3C)C2)cs1 (configuration not stated) showed a cytotoxicity at 70.5 h of -14.1%.
Work on Cc1noc(C)c1CN1C[C@@H]2CN(C(=O)c3cnccn3)C[C@@H]2C1 yielded a cytotoxicity at 70.5 h of 0.0874%.
CCn1cc(CN2C[C@H]3CC[C@@H]2CN(C(=O)C2CCC2)C3)cn1 showed a cytotoxicity at 70.5 h of -6.91%.
CN(C)c1ccc(NC(=O)N2CCCCC2c2ncc[nH]2)cn1 (configuration not stated) gave a cytotoxicity at 70.5 h of 14.8%.
Work on Cn1cccc1C(=O)N1CCCN(CCCc2ccccc2)CC1 yielded a cytotoxicity at 70.5 h of 7.34%.
For COc1ccccc1CNCc1nn(-c2ccccc2)c2c1CCC2, the cytotoxicity at 70.5 h was 0.28%.
Work on CCN(Cc1nc(COC)no1)C(=O)CCNC(=O)c1ccccc1F yielded a cytotoxicity at 70.5 h of 22.4%.
O=C(c1ccncc1)N1CCCC(c2cc(C(F)F)n3ncnc3n2)C1 (configuration not stated) gave a cytotoxicity at 70.5 h of -3.18%.
In the case of Cc1nnc2n1CCN(C(=O)c1ccc(Cn3cccc3)cc1)C2, the cytotoxicity at 70.5 h is reported as -7.82%.
O=S(=O)(N1CCCCC1)N1CCOC2(CCCC2)C1 gave a cytotoxicity at 70.5 h of -0.763%.
With CN1CCCc2sc(C(=O)NCc3cccnc3)nc21 the cytotoxicity at 70.5 h was -10.4%.
O=C(NCCNc1cnccn1)N1CC=C(c2ccccc2)CC1 showed a cytotoxicity at 70.5 h of -8.49%.
In the case of CC(NCc1nnc2n1CCCC2)c1nc(C(C)(C)C)no1 (configuration not stated), the cytotoxicity at 70.5 h is reported as -13.6%.
Compound CC(C)C1CN(S(=O)(=O)c2ccc(C#N)cc2)CCS1 (configuration not stated) has a cytotoxicity at 70.5 h of -11.1%.
With CCOC(C)c1noc(CN2CCN(Cc3ccno3)CC2)n1 (configuration not stated) the cytotoxicity at 70.5 h was -3.49%.
